Our source for the growth rescue activity values is PubChem BioAssay AID602273 (Broad Institute, 2012).

This assay in a line: rescue of alpha-synuclein yeast toxicity, dose response, S. cerevisiae, plate reader, cherry-pick (AID 602273). Particulars: S. cerevisiae alpha-synuclein toxicity rescue, OD600 growth, 24 h; at 26 µM (top of the series).

The source made the active and inactive calls. No rule for the calls is given here.

Regarding `CC1(C)CC(=O)C2=C(C1)OC(N)=C(C#N)C2C#Cc1ccccc1` (stereo unspecified), the growth rescue activity is 8.43% (inactive). As to `Cn1cc([N+](=O)[O-])c(C(=O)Nc2ccc(-c3nc4ccccc4[nH]3)cc2)n1`, the growth rescue activity was -1.83% (inactive).

Consider `CC(C)(C)c1cc(NC(=O)CCSc2nnc3ccccn23)cc(C(C)(C)C)c1`, for which the growth rescue activity is 3.55% (inactive). Regarding `CCOC(=O)CC(=O)CSCC(=O)Nc1ccc(C)cc1`, the growth rescue activity is -1.13% (inactive). In the case of `CCC(=O)Nc1cccc(C(=O)/C=C/c2ccc(F)cc2)c1`, the growth rescue activity was -9.73% (inactive). As for `COC(=O)C1CCN(C(=O)COC(=O)c2ccc(OC)c(S(=O)(=O)N3CCCc4ccccc43)c2)CC1`, the growth rescue activity is -1.07% (inactive). Take `Cc1csc2nc(CCNS(=O)(=O)c3cccs3)cn12`: the growth rescue activity was 3.48% (inactive). As to `O=c1[nH]c2ccccc2n1CCC1CCCCC1`, the growth rescue activity was 8.15% (inactive).

For `Nc1ccc(Sc2cnn(-c3ccccc3)c(=O)c2Cl)cc1`, the growth rescue activity is 1.77% (inactive). With `COc1ccc(NC(=O)COC(=O)/C=C/C(=O)OCC(=O)Nc2ccc(OC)c(Cl)c2)cc1Cl`, the growth rescue activity was 3.29% (inactive). The same measure for `c1ccc2c(Nc3nnc(-c4ccncc4)s3)cccc2c1`: -9.03% (inactive); for `Oc1[nH]c(N=C2N=c3ccccc3=N2)c2ccccc12`: -26.4% (inactive); for `CC1(C)CC(=O)C(=Cc2cn(-c3ccccc3)nc2-c2ccccc2)C(=O)C1`: 1.64% (inactive). The value for `Cc1ccc(N2C(=O)SC(N(CC(=O)O)c3ccc(C)cc3)C2=O)cc1` (stereo unspecified) was -2.3% (inactive); that for `O=C(OCc1csc(-c2ccccc2)n1)c1cccs1` was 0.967% (inactive); that for `CCN(CC)CCCNC(=O)CSc1c2c(nc3cc(Cl)ccc13)CCCC2` was 3.73% (inactive). The value for `Nc1nnc(SCc2c(F)cccc2Cl)s1` was 4.49% (inactive); that for `COC(=O)C(C)Sc1ncnc2c1nnn2-c1ccc(F)cc1` (stereo unspecified) was -1.99% (inactive); that for `Cc1nc2ccccc2nc(C)c1=NOCc1ccccc1Cl` was 0.053% (inactive). Regarding `O=C(Cc1cccs1)NCc1ccccc1Br`, the growth rescue activity was -5.14% (inactive). The same measure for `Cc1cc(C)nc(S/C=C/C(=O)c2ccccc2F)n1`: 1.06% (inactive); for `COc1ccc(C(=O)n2nc(C)cc2Nc2ccccc2)cc1`: 2.84% (inactive); for `Cc1[nH]n(-c2ccccc2)c(=O)c1C=NCCc1ccccc1`: 5.9% (inactive). The value for `COc1ccc(S(=O)(=O)n2nc(OC(=O)c3ccccc3Br)cc2N)cc1` was -9.27% (inactive); that for `CC1CC(C)(C)N(C(=O)NC2CCCCC2)c2ccccc21` (stereo unspecified) was 12.6% (inactive).

Take `Cc1ccc(C2=Nc3ccccc3NC(C)(c3ccc(C)o3)C2)o1` (stereo unspecified): the growth rescue activity was 0.617% (inactive). The same measure for `O=c1[nH][nH]c(-c2ccccc2O)c1C(C[N+](=O)[O-])c1ccccc1` (stereo unspecified): 0.55% (inactive); for `Cc1ccc(O)c(NC(=O)c2onc(C)c2Cl)c1`: 6.44% (inactive). The same measure for `Cc1cccc(NCc2nc3ccccc3n2C)c1`: -1.89% (inactive); for `Cc1ccc(N2C(=O)NC(=O)/C(=C\C=C\c3ccco3)C2=O)cc1C`: 1.5% (inactive). The value for `CC(=O)c1cccc(N(CC(=O)Nc2ccc(F)cc2F)S(C)(=O)=O)c1` was 2.96% (inactive). Regarding `COc1ccc(C(=O)Cn2c(C(=O)/C=C/c3ccccc3)nc3ccccc32)cc1`, the growth rescue activity is 1.68% (inactive).

Take `Cc1[nH]c2ccccc2c1/C=C(\C#N)C(=O)NCC1CCCO1` (stereo unspecified): the growth rescue activity is 4.73% (inactive). The same measure for `CC(=O)Cc1cc(O)c2ccccc2c1OC(=O)c1ccccc1`: -0.443% (inactive); for `O=C(O)C1CCCCC1C(=O)Nc1ccc2c(c1)CCC2` (stereo unspecified): -2.7% (inactive); for `CCOC(=O)C1=NN(C(=O)c2ccccc2)C(O)(c2ccc(C)cc2)C1` (stereo unspecified): 10.9% (inactive). The value for `Cc1c(/C=N/NC(=O)c2ccc(Br)o2)cnn1C` was -2.43% (inactive); that for `O=C(CSc1ccc(Cl)cc1)N1CCN(c2c(Cl)cccc2[N+](=O)[O-])CC1` was -19.7% (inactive). As for `O=c1[nH]c2c(s1)C=Nc1ccccc1N2`, the growth rescue activity is 4.6% (inactive). `O=C(NC1CCSc2ccccc21)c1ccccc1Cl` (stereo unspecified): the growth rescue activity is -4.11% (inactive).

With `CC(C)C(=O)N1CCC(n2nccc2NC(=O)CCOc2ccccc2)CC1`, the growth rescue activity was -1.45% (inactive). The same measure for `COc1ccc(CCNc2oc(-c3ccccc3OC)nc2C#N)cc1`: 1.38% (inactive).

Turning to `CN(Cc1ccccc1)C(=O)c1cc(-c2ccc(Br)cc2)on1`, the growth rescue activity is -17.2% (inactive). The same measure for `O=C1NCC2=C1C(c1ccc(Br)cc1)Nc1ccccc1N2` (stereo unspecified): -8.45% (inactive); for `O=c1c2ccccc2[nH]c(=S)n1CCC1=CCCCC1`: 21.3% (inactive). The value for `Cc1cccc(-c2cc(C(=O)Nc3ccncc3)c3ccccc3n2)c1` was 1.56% (inactive). In the case of `CC(C)CC(=O)Nc1ccc(N2CCOCC2)cc1`, the growth rescue activity was 3.83% (inactive). `O=c1[nH]n(CC2COC3(CCCCC3)O2)c(=O)c2ccccc12` (stereo unspecified): the growth rescue activity was -3.22% (inactive).

For `CCCc1nc(SCC(=O)Nc2cc(C)on2)c2ccccc2n1`, the growth rescue activity was 4.07% (inactive). `O=C(NCc1cccc(F)c1)c1noc2c1CCCC2`: the growth rescue activity was 10.6% (inactive).

For the molecule `N#Cc1ccc(OCCN2CCc3ccccc3C2)cc1`, the growth rescue activity is 4.6% (inactive). On to `CC1(C)CC(=O)C2=C(C1)Nc1cc3c(cc1C2c1ccc2c(c1)OCO2)OCO3` (stereo unspecified), for which the growth rescue activity is 11.9% (inactive).

For the molecule `Fc1ccccc1-c1nc2nc3ccccc3nc2n1CC1CCCO1` (stereo unspecified), the growth rescue activity was 11.6% (inactive). As to `CCSc1nnc(NC(=O)c2cccnc2Cl)s1`, the growth rescue activity was -4.76% (inactive). `Cn1c(CO)cnc1SCC(=O)c1ccc(Cl)cc1`: the growth rescue activity is 4.95% (inactive). Turning to `CCn1c(SCC(=O)c2ccc(Cl)cc2)nnc1-c1ccoc1C`, the growth rescue activity was 2.33% (inactive). Consider `Brc1cnc2nc(SC/C=C/c3ccccc3)[nH]c2c1`, for which the growth rescue activity is 0.58% (inactive). The value for `CN(CCC1CCCCO1)C(=O)CCc1nnc(CCCCc2ccccc2)o1` (stereo unspecified) was 1.7% (inactive); that for `CNc1nc(Nc2ccc(C)c(Cl)c2)nc(N)c1[N+](=O)[O-]` was -8.67% (inactive); that for `O=C1NC(=S)S/C1=C/c1ccc(OC(=O)c2ccco2)cc1` was 9.87% (inactive). The same measure for `CC(=O)Nc1nnc(SCC(=O)c2ccc(F)cc2)s1`: -0.765% (inactive). The value for `CN(Cc1nnc(-c2ccc(F)cc2)o1)c1ccccc1` was 8.17% (inactive); that for `CCCCC(=O)OCC(=O)c1[nH]c(C)c(C(=O)OCC)c1C` was 2.65% (inactive); that for `CCN1C(=O)CC(N2CCN(c3ccc(C(=O)c4ccccc4)cc3)CC2)C1=O` (stereo unspecified) was -0.853% (inactive).

`COC(=O)[C@@H](Cc1c[nH]c2ccccc12)NC(=O)c1ccc2c(c1)OCO2`: the growth rescue activity is 0.758% (inactive).

For `c1ccc(N2CC3CCc4ccccc4C3=N2)cc1` (stereo unspecified), the growth rescue activity was 11.6% (inactive). The same measure for `Cc1ccc(CN2CCN(CC(C)C)C(CCO)C2)s1` (stereo unspecified): -1.18% (inactive); for `C=CCN1C(=O)C(Cc2ccc(OCC)cc2)SC1=Nc1ccc(C(=O)O)cc1` (stereo unspecified): 18.5% (inactive); for `O=C(O)CSc1nc2ccccc2nc1Cc1ccccc1F`: 5.3% (inactive).

As for `C/C(=N\NC(=O)c1ccoc1C)c1cccc2ccccc12`, the growth rescue activity was 8.58% (inactive). The same measure for `Cc1cc(-c2nnc(CCC(=O)N(C)Cc3cccc4ccccc34)o2)no1`: 8.5% (inactive); for `CC(OC(=O)/C=C/c1ccc2ccccc2n1)C(=O)NCc1ccccc1` (stereo unspecified): 3.64% (inactive); for `COc1ccc2cc(/C=C/C(=O)N3CCN(CC(=O)N4CCCCCC4)CC3)ccc2c1`: -2.63% (inactive). As for `CCOC(=S)SCC(=O)Nc1nc(C)c(C)s1`, the growth rescue activity is 0.308% (inactive). Consider `O=C(Nc1ccccc1C(=O)OCC(=O)c1c[nH]c2ccccc12)c1ccco1`, for which the growth rescue activity was 5.29% (inactive). Take `C=CCn1c(C)cc(C(=O)CSc2nc(N)cc(N)n2)c1C`: the growth rescue activity is 0.814% (inactive). The value for `Cc1cc(C(=O)N2CCN(c3ccccn3)CC2)c(C)o1` was -0.518% (inactive); that for `CCOc1cccc(/C=C/c2ccc3cccc(O)c3n2)c1OC` was -2.49% (inactive); that for `CCN(CC)CCn1c2ccccc2c2nc3ccc([N+](=O)[O-])cc3cc21` was 0.822% (inactive). With `COc1ccc(/C=C2/SC(=O)N(CCNC(=O)C3COc4ccccc4O3)C2=O)cc1` (stereo unspecified), the growth rescue activity is 5.56% (inactive).

For `C/C(Cn1cnc([N+](=O)[O-])n1)=N\NC(=O)c1ccccc1F`, the growth rescue activity was -2.85% (inactive). In the case of `COc1ccc2c(c1OC)C(=O)OC2Nc1nc(-c2ccccc2)cs1` (stereo unspecified), the growth rescue activity was 3.17% (inactive). For the molecule `CCOC(=O)C1(Cc2ccc(OC)cc2)CCN(C(=O)c2cc3ccccc3[nH]2)CC1`, the growth rescue activity was 1.19% (inactive). The same measure for `O=C(CC12CCC(CC1)C2)NCc1ccc2c(c1)OCO2`: 2.83% (inactive). The same measure for `O=C(NCCN1Cc2ccccc2C1=O)c1cccs1`: -6.05% (inactive); for `Cc1ccc(C(=O)CNc2ccc(Cl)cc2)cc1`: 5.52% (inactive).
